Source: the NIST ThermoML archive (doi:10.1021/je700339f)

Conditions: Liquid

ClCCCl [1,2-dichloroethane]
mass density [kg/m3]
Conditions | 288.15 K | 298.15 K | 308.15 K | 318.15 K
100 kPa | 1259.9 | 1245.5 | 1231 | 1216.4
500 kPa | 1260.3 | 1246.1 | 1231.4 | 1216.7
1000 kPa | 1260.8 | 1246.4 | 1232 | 1217.4
1500 kPa | 1261.2 | 1246.9 | 1232.5 | 1218
2000 kPa | 1261.6 | 1247.4 | 1233 | 1218.5
2500 kPa | 1262.2 | 1247.8 | 1233.5 | 1219.1
3100 kPa | 1262.7 | 1248.5 | 1234.2 | 1219.8
3600 kPa | 1263.2 | 1248.9 | 1234.7 | 1220.3
4100 kPa | 1263.6 | 1249.4 | 1235.2 | 1220.9
4600 kPa | 1264 | 1249.9 | 1235.7 | 1221.4
5100 kPa | 1264.5 | 1250.4 | 1236.2 | 1222
5600 kPa | 1264.9 | 1250.9 | 1236.9 | 1222.6
6100 kPa | 1265.4 | 1251.4 | 1237.3 | 1223.1
6600 kPa | 1265.8 | 1251.9 | 1237.9 | 1223.6
7100 kPa | 1266.2 | 1252.3 | 1238.4 | 1224.1
7600 kPa | 1266.7 | 1252.9 | 1238.6 | 1224.7
8100 kPa | 1267.2 | 1253.2 | 1239.3 | 1225.2
8600 kPa | 1267.6 | 1253.8 | 1239.8 | 1225.8
9200 kPa | 1268.2 | 1254.4 | 1240.4 | 1226.3
9600 kPa | 1268.6 | 1254.9 | 1240.9 | 1226.9
10000 kPa | – | 1255.1 | – | –
10100 kPa | 1269 | – | 1241.3 | 1227.5
10600 kPa | 1269.4 | 1255.9 | 1241.8 | 1227.9
11100 kPa | 1269.8 | 1256.4 | 1242.3 | 1228.4
11600 kPa | 1270.3 | 1256.7 | 1242.8 | 1229
12100 kPa | 1270.7 | 1257.3 | 1243.4 | 1229.5
12500 kPa | – | – | – | 1230
12600 kPa | 1271 | 1257.6 | 1243.8 | –
13100 kPa | 1271.5 | 1258 | 1244.2 | 1230.6
13600 kPa | 1271.9 | 1258.5 | 1244.7 | 1231
14100 kPa | 1272.4 | – | – | –
14200 kPa | – | 1259 | 1245.3 | 1231.6
14700 kPa | 1272.9 | 1259.4 | 1245.8 | 1232.1
15200 kPa | 1273.3 | 1260 | 1246.4 | 1232.7
15600 kPa | – | – | – | 1233.1
15700 kPa | 1273.7 | 1260.5 | 1246.8 | –
16200 kPa | – | 1260.8 | 1247.2 | –
16300 kPa | 1274.2 | – | – | 1233.8
16700 kPa | – | 1261.4 | 1247.7 | –
16800 kPa | 1274.6 | – | – | 1234.2
17200 kPa | 1275 | – | 1248.2 | –
17300 kPa | – | 1261.9 | – | 1234.8
17700 kPa | 1275.4 | – | – | –
17800 kPa | – | 1262.4 | 1248.7 | 1235.2
18200 kPa | 1275.8 | – | – | 1235.5
18300 kPa | – | 1262.8 | 1249.2 | –
18600 kPa | 1276.2 | – | – | –
18800 kPa | – | 1263.3 | 1249.6 | –
18900 kPa | – | – | – | 1236.2
19000 kPa | 1276.5 | – | – | –
19200 kPa | – | 1263.7 | 1250.1 | 1236.5
19400 kPa | 1276.9 | – | – | –
19700 kPa | – | 1264.1 | 1250.6 | 1237.1
20000 kPa | 1277.3 | – | – | –
20200 kPa | – | 1264.5 | 1251 | 1237.5
